Literature values in patent US20150080442A1, “TRANSMUCOSAL DRUG DELIVERY SYSTEM” (PHARMACEUTICAL PRODUCTIONS INC., priority 2013, published 2015).

Key:
[1] = pH 6.8

SMILES	mean absolute oral bioavailability	nicotine in the free base form [1]
CN(C)CCc1c[nH]c2ccc(C[C@H]3COC(=O)N3)cc12 [Zolmitriptan]	approximately 40%	–
CN1CCCC1c1cccnc1 (centres unmarked) [nicotine]	–	about 10%
